Reference: patent US10106834B2, “Methods of diagnosing and treating B cell acute lymphoblastic leukemia” (The General Hospital Corporation, priority 2013, dated 2018)

Test system: integrin α4β1 (VLA-4) on WT and IkE5Δ/Δ pre-B cells
Test: Adhesion of adherent pre-B cells to fibronectin-coated plates with peptide blocking
Type: cell-based, mouse
Settings: 400 μg/ml peptide
Protocol: Adhesion to Integrin Ligands and In Vitro FAK Inhibition Assay. Adhesion assay were performed in non-TC treated plates (BD). The plates were coated with 10 ug/ml fibronectin (FN), collagen (Col.) (Invitrogen) or BSA alone overnight at 4° C. After blocking the plates with 2% BSA for 1 h, equal number of cells were plated and incubated for the indicated time points. At the end of the assay, unbound and bound cells were harvested and enumerated. Percent adhesion was calculated by taking ratio of bound cells over total cells used in each assay.
For peptide mediated blocking of adhesion^55, equal number of cells were pretreated for 45 minutes with either 400 μg/ml G-R-G-D-S-P (SEQ ID NO:1) or the control peptide G-R-G-E-S (SEQ ID NO:2) (American Peptide Company) and plated on FN-coated TC dishes. Cells were enumerated for calculation of percent adhesion and percent inhibition.

For G-R-G-D-S-P [RGD], which “binding of pre-B cells to fibronectin” value is on record?
The value was “significantly inhibited”.
